What all share (format): cell-based
The test system of experiment [1] is MDA-MB-231, human breast cancer cells. As to the kind of experiment: Proliferation assay MDA-MB-231 (crystal violet, 4 days). The following applies: Homo sapiens, MDA-MB-231, 96 h, MDA-MB-231 cells, median, read-out: Prolif-MDA MB-231, IC50-[mol/l] (median). The procedure, abridged:
(§1)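 Plated 4,000 cells/well, 10% FCS; 24 h later treated 0.01-10 µmol/L cpd (DMSO 0.1%), 4 d. Fix glutaraldehyde, stain 0.1% crystal violet pH 3.0, elute acetic acid, A595. Normalized to t0 plate/untreated; 4-param IC50.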

In experiment [2] the test system is CAL-120, human breast adenocarcinoma cells. Description: Proliferation assay CAL-120 (crystal violet, 4 days). The following applies: Homo sapiens, CAL-120, 96 h, CAL-120 cells, median, read-out: Prolif-CAL-120, IC50-[mol/l] (median). In outline:
as §1

In experiment [3] the target is T1, CYCLIN K (nuclear staining in CAL-120 cells) (Homo sapiens, UniProt O75909).
T1 construct: endogenous in cells; host or cells: CAL-120 human breast cancer cells (DSMZ ACC 459)
Description: CYCLIN K nuclear protein level: immunofluorescence high content analysis (CAL-120). To be noted: 24 h, 50% reduction of nuclear CCNK staining intensity, median, read-out: CYCLIN K degradation IF, DC50-[mol/l] (median). The procedure, abridged:
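CAL-120 breast cancer cells treated in dose-response for 24 h at 37 °C, PFA-fixed and immunostained for cyclin K with Hoechst counterstain. Confocal imaging quantified nuclear intensity; DC50 is the concentration giving 50% reduction of nuclear CCNK staining, normalized to DMSO and control.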

The target of experiment [4] is T2, CDK12 protein level in CAL-120 breast cancer cells (Homo sapiens, UniProt Q9NYV4).
T2 construct: endogenous in cells; host or cells: CAL-120 human breast cancer cells (DSMZ ACC 459)
Description: CDK12 protein level: Protein Simple (CDK12, CAL-120). The following applies: CAL-120 cells, 18 h with compound, CDK12/HSP90 peak area ratio vs vehicle, median, read-out: CDK12 protein level in CAL-120 breast ca cells, DC50-[mol/l] (median). The procedure, abridged: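 Cells grown 24 h, then treated with compounds for 18 h at 37° C against DMSO controls. Lysates (0.4 microgramms protein) run on Protein Simple 66-440 kDa size assay with CDK12 and HSP90 loading-control antibodies. CDK12/HSP90 peak-area ratios versus vehicle gave DC50 (50% reduction) by 4-parameter fit.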

T1 sequence (O75909 whole entry): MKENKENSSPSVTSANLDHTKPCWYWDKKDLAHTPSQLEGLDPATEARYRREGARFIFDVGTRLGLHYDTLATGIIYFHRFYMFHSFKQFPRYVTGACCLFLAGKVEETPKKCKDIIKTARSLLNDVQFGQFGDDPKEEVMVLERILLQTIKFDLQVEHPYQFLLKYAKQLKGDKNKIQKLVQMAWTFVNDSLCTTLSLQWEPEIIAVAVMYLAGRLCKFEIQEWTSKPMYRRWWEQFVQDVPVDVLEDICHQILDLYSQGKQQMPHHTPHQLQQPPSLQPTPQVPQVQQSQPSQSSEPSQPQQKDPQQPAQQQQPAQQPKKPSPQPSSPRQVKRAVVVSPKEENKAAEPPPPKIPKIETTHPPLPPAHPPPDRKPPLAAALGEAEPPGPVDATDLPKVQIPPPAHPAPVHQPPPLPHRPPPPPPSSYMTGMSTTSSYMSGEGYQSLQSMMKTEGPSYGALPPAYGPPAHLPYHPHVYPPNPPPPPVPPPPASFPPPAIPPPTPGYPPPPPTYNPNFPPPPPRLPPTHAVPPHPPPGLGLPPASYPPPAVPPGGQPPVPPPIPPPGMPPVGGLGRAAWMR
T1 sequence (Q9NYV4 whole entry partner): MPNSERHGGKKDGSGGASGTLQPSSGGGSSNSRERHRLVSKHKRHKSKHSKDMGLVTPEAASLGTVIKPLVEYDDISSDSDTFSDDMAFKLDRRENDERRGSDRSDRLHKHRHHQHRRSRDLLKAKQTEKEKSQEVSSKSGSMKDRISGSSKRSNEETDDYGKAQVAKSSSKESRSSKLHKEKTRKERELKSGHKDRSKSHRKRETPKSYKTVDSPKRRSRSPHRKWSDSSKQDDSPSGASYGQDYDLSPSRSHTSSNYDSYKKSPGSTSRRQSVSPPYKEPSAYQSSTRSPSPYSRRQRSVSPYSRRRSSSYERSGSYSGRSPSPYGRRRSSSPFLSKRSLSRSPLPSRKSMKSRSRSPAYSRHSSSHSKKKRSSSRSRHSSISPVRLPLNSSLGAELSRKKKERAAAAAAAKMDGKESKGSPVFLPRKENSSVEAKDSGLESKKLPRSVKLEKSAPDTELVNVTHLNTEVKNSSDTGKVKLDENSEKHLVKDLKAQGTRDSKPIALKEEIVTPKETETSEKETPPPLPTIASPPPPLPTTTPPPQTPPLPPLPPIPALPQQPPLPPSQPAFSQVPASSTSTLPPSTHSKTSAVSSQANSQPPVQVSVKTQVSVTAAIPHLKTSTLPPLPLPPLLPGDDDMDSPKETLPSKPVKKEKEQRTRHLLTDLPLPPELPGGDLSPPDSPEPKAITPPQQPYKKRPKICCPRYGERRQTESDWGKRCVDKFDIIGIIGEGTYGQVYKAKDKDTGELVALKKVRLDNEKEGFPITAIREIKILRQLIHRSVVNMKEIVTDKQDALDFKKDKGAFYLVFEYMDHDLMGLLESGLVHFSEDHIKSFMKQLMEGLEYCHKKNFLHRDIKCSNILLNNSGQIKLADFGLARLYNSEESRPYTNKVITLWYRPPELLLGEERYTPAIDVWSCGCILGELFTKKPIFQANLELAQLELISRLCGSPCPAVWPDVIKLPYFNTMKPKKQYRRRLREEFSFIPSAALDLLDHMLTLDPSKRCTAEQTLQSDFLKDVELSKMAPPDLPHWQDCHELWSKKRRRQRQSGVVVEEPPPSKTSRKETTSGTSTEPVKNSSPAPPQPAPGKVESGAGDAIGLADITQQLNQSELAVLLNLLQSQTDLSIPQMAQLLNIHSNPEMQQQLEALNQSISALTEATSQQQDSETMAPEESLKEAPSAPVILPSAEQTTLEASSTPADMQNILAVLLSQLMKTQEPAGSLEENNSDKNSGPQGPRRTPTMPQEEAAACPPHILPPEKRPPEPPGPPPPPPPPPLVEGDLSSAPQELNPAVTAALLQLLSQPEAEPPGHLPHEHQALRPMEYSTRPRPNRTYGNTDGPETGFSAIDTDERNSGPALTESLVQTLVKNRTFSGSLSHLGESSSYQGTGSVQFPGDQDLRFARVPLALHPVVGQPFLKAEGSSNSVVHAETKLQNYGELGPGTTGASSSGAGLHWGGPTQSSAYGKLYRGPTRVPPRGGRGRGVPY
T2 sequence (Q9NYV4 whole entry): as the sequence (Q9NYV4 whole entry partner) above
T2 sequence (O75909 whole entry partner): as the sequence (O75909 whole entry) above

Take `CN1CCN(c2nc(NCc3nc4cc(Cl)c(Cl)cc4[nH]3)n3ncc(C4CC4)c3n2)CC1` [Example 305, 8-cyclopropyl-N-[(5,6-dichloro-1H-benzimidazol-2-yl)methyl]-2-(4-methylpiperazin-1-yl)pyrazolo[1,5-a][1,3,5]triazin-4-amine]: the IC50 in experiment [1] worked out at 0.00594 µM; in experiment [2] it was 0.00444 µM. The DC50 in experiment [3] came to 0.000972 µM.
Taken in the same sequence, the figures for `CCc1cnn2c(NCc3nc4c(F)c(F)ccc4[nH]3)nc(N3CCN(C)CC3)nc12.O=CO` [Example 435, formic acid N-[(4,5-difluoro-1H-benzimidazol-2-yl)methyl]-8-ethyl-2-(4-methylpiperazin-1-yl)pyrazolo[1,5-a][1,3,5]triazin-4-amine] were 0.00425 µM, 0.00176 µM and 0.000274 µM.
Turning to `COC(=O)C1CCN(c2nc(NCc3nc4ccccc4[nH]3)n3ncc(Br)c3n2)CC1` [Example 63, methyl 1-(4-{[(1H-benzimidazol-2-yl)methyl]amino}-8-bromopyrazolo[1,5-a][1,3,5]triazin-2-yl)piperidine-4-carboxylate], in experiment [2], the IC50 came out at 0.036 µM. Moreover, the results for the DC50 in experiment [4] and in experiment [3] were 0.0418 µM and 0.00409 µM, respectively.
Turning to `COC1CCN(c2nc(NCc3nc4ccccc4[nH]3)n3ncc(Br)c3n2)CC1` [Example 62, N-[(1H-benzimidazol-2-yl)methyl]-8-bromo-2-(4-methoxypiperidin-1-yl)pyrazolo[1,5-a][1,3,5]triazin-4-amine], in experiment [2], the IC50 came to 0.0325 µM. In addition, the DC50 in experiment [4] was 0.128 µM; in experiment [3] it was 0.00227 µM.
Taken in the same sequence, the figures for `Fc1ccc(-c2cnc(CNc3nc(N4CCOCC4)nc4c(Br)cnn34)[nH]2)cc1` [Example 66, 8-bromo-N-{[5-(4-fluorophenyl)-1H-imidazol-2-yl]methyl}-2-(morpholin-4-yl)pyrazolo[1,5-a][1,3,5]triazin-4-amine] were 0.23 µM, 0.0437 µM and 0.00245 µM.
For the compound `CN1CCN(c2nc(NCc3nc4cc(C(F)(F)F)ccc4[nH]3)n3ncc(C4CC4)c3n2)CC1` [Example 313, 8-cyclopropyl-2-(4-methylpiperazin-1-yl)-N-{[5-(trifluoromethyl)-1H-benzimidazol-2-yl]methyl}pyrazolo[1,5-a][1,3,5]triazin-4-amine], the results for the IC50 in experiment [1] and in experiment [2] were 0.0156 µM and 0.00952 µM, respectively. For the same compound, the DC50 in experiment [3] was determined as 0.00157 µM.
With `Clc1ccc(-c2cnc(CNc3nc(N4CCOCC4)nc4c(Br)cnn34)[nH]2)cc1` [Example 72, 8-bromo-N-{[5-(4-chlorophenyl)-1H-imidazol-2-yl]methyl}-2-(morpholin-4-yl)pyrazolo[1,5-a][1,3,5]triazin-4-amine], in experiment [2], the IC50 turned out to be 0.0324 µM. The DC50 in experiment [3] came to 0.0114 µM.
Regarding `c1ccc(-c2nnc(CNc3nc(N4CCOCC4)nc4c(C5CC5)cnn34)[nH]2)cc1` [Example 93, 8-cyclopropyl-2-(morpholin-4-yl)-N-[(5-phenyl-4H-1,2,4-triazol-3-yl)methyl]pyrazolo[1,5-a][1,3,5]triazin-4-amine], the IC50 in experiment [2] stood at 0.1 µM. The DC50 in experiment [3] is 0.0173 µM.
Consider `CC(C)c1cnn2c(NCc3nc4ccccc4[nH]3)nc(N3CCOCC3)nc12` [Example 1, N-[(1H-benzimidazol-2-yl)methyl]-2-(morpholin-4-yl)-8-(propan-2-yl)pyrazolo[1,5-a][1,3,5]triazin-4-amine], for which, in experiment [1], the IC50 worked out at 0.0864 µM. Moreover, the results for the DC50 in experiment [4] and in experiment [3] were 0.0574 µM and 0.0111 µM, respectively.
`C[C@@H]1CN(c2nc(NCc3nnc(-c4ccccc4)[nH]3)n3ncc(Br)c3n2)C[C@H](C)O1` [Example 78, 8-bromo-2-[(2R,6S)-2,6-dimethylmorpholin-4-yl]-N-[(5-phenyl-4H-1,2,4-triazol-3-yl)methyl]pyrazolo[1,5-a][1,3,5]triazin-4-amine]: the IC50 in experiment [2] stood at 0.0257 µM. Moreover, the DC50 in experiment [3] was determined as 0.00161 µM.
`CC1(C)CN(c2nc(NCc3nnc(-c4ccccc4)[nH]3)n3ncc(Br)c3n2)CCO1` [Example 68, 8-bromo-2-(2,2-dimethylmorpholin-4-yl)-N-[(5-phenyl-4H-1,2,4-triazol-3-yl)methyl]pyrazolo[1,5-a][1,3,5]triazin-4-amine]: the IC50 in experiment [2] came out at 0.0402 µM. For the same compound, the DC50 in experiment [3] is 0.00285 µM.
Taken in the same sequence, the figures for `Brc1cnn2c(NCc3ncc(-c4cccnc4)[nH]3)nc(N3CCOCC3)nc12` [Example 84, 8-bromo-2-(morpholin-4-yl)-N-{[5-(pyridin-3-yl)-1H-imidazol-2-yl]methyl}pyrazolo[1,5-a][1,3,5]triazin-4-amine] were 0.107 µM and 0.0118 µM.
Taken in the same sequence, the figures for `COc1cccc(-c2cnc(CNc3nc(N4CCOCC4)nc4c(Br)cnn34)[nH]2)c1` [Example 80, 8-bromo-N-{[5-(3-methoxyphenyl)-1H-imidazol-2-yl]methyl}-2-(morpholin-4-yl)pyrazolo[1,5-a][1,3,5]triazin-4-amine] were 0.0142 µM and 0.00134 µM.
For `Brc1cnn2c(NCc3nnc(-c4ccccc4)[nH]3)nc(N3CCCC3)nc12` [Example 64, 8-bromo-N-[(5-phenyl-4H-1,2,4-triazol-3-yl)methyl]-2-(pyrrolidin-1-yl)pyrazolo[1,5-a][1,3,5]triazin-4-amine], the IC50 in experiment [2] worked out at 0.0361 µM. Moreover, the DC50 in experiment [4] turned out to be 0.0871 µM; in experiment [3], 0.00489 µM.

For the origin of these results see patent publication US20230117034A1, “PYRAZOLOTRIAZINES” (Bayer Aktiengesellschaft, priority 2019, published 2023).
